Data: PubChem BioAssay AID248 (DTP/NCI, 2004)
Values joined by “and” are separate entries in the source; they are usually repeats but may differ in a detail not shown here. Equal entries are not always repeated. Toxic doses and inconclusive results are not listed. Cut-off read from the data, not from the text of the source: active = T/C of 150% or more; inactive = T/C below 125%.

Tested on: L1210 leukemia ip in BDF1 mice, survival T/C
Assay: NCI In Vivo Anticancer Drug Screen. Data for tumor model L1210 Leukemia (intraperitoneal) in B6D2F1 (BDF1) mice
Conditions: endpoint: mean survival time, higher = longer survival
Summary of the method: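 Transplantable tumor model; survival measured in treated vs vehicle control mice. Value = treated/control.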

[1] = dose: 100.0 mg/kg/injection, schedule: Q01DX009 (ip), vehicle: saline
[2] = dose: 100.0 mg/kg/injection, schedule: Q04DX003 (ip), vehicle: saline
[3] = dose: 200.0 mg/kg/injection, schedule: Q01DX009 (ip), vehicle: saline
[4] = dose: 200.0 mg/kg/injection, schedule: Q04DX003 (ip), vehicle: saline
[5] = dose: 400.0 mg/kg/injection, schedule: Q01DX009 (ip), vehicle: saline
[6] = dose: 400.0 mg/kg/injection, schedule: Q04DX003 (ip), vehicle: saline
[7] = dose: 100.0 mg/kg/injection, schedule: Q04DX003 (ip), vehicle: Klucel (hydroxypropylcellulose) (HPC)
[8] = dose: 200.0 mg/kg/injection, schedule: Q04DX003 (ip), vehicle: Klucel (hydroxypropylcellulose) (HPC)
[9] = dose: 400.0 mg/kg/injection, schedule: Q04DX003 (ip), vehicle: Klucel (hydroxypropylcellulose) (HPC)
[10] = dose: 100.0 mg/kg/injection, schedule: Q04DX003 (ip), vehicle: saline with Tween-80
[11] = dose: 200.0 mg/kg/injection, schedule: Q04DX003 (ip), vehicle: saline with Tween-80
[12] = dose: 100.0 mg/kg/injection, schedule: Q04DX002 (ip), vehicle: Klucel (hydroxypropylcellulose) (HPC)
[13] = dose: 200.0 mg/kg/injection, schedule: Q04DX002 (ip), vehicle: Klucel (hydroxypropylcellulose) (HPC)
[14] = dose: 100.0 mg/kg/injection, schedule: Q01DX009 (ip), vehicle: saline with Tween-80
[15] = dose: 200.0 mg/kg/injection, schedule: Q01DX009 (ip), vehicle: saline with Tween-80
[16] = dose: 400.0 mg/kg/injection, schedule: Q01DX009 (ip), vehicle: saline with Tween-80
[17] = dose: 50.0 mg/kg/injection, schedule: Q01DX009 (ip), vehicle: Klucel (hydroxypropylcellulose) (HPC)

Measured: T/C

CC1(C)CC(=O)c2c(cc3c(c2O)C(=O)CC(C)(C)O3)O1
inactive: [1] 94 % of control | [2] 100 % of control | [3] 94 % of control | [4] 94 % of control | [5] 95 % of control | [6] 106 % of control

O=P(Cc1ccccc1)(c1ccccc1)c1ccccc1
inactive: [7] 90 % of control | [8] 90 % of control | [9] 94 % of control

O=[N+]([O-])c1ccc(-c2ccccc2)c([As](=O)(O)O)c1
inactive: dose: 25.0 mg/kg/injection, schedule: Q04DX002 (ip), vehicle: saline with Tween-80 106 % of control

CCCC(CC)NC(N)=O (stereo not given)
inactive: [10] 107 % of control | [11] 95 % of control | dose: 400.0 mg/kg/injection, schedule: Q04DX003 (ip), vehicle: saline with Tween-80 109 % of control

Cc1ccc(S(=O)(=O)OCC2OC(n3cnc4c(N)ncnc43)C(O)C2O)cc1 (stereo not given)
inactive: dose: 100.0 mg/kg/injection, schedule: Q01DX005 (ip), vehicle: saline 105 % of control | dose: 200.0 mg/kg/injection, schedule: Q01DX005 (ip), vehicle: saline 95 % of control

Cc1ccc(C(O)c2nnc(C(O)c3ccc(C)cc3)nn2)cc1 (stereo not given)
inactive: [12] 88 % of control and 107 % of control and 100 % of control | [13] 100 % of control and 96 % of control | dose: 400.0 mg/kg/injection, schedule: Q04DX002 (ip), vehicle: Klucel (hydroxypropylcellulose) (HPC) 96 % of control and 100 % of control

N#C/C(=C\c1ccncc1)c1ccccc1Cl
inactive: dose: 100.0 mg/kg/injection, schedule: Q01DX001 (ip), vehicle: other 91 % of control | dose: 200.0 mg/kg/injection, schedule: Q01DX001 (ip), vehicle: other 89 % of control | dose: 400.0 mg/kg/injection, schedule: Q01DX001 (ip), vehicle: other 96 % of control

CC(C)NC(=O)Oc1cccc(NC(=O)N(C)C)c1
inactive: [14] 93 % of control | [15] 93 % of control | [16] 93 % of control

CCCCCCCCCCCCCCCCSSCCCCCCCCCCCCCCCC
inactive: dose: 100.0 mg/kg/injection, schedule: Q01DX001 (ip), vehicle: carboxymethylcellulose (CMC) 93 % of control | [14] 92 % of control | dose: 200.0 mg/kg/injection, schedule: Q01DX001 (ip), vehicle: carboxymethylcellulose (CMC) 95 % of control | [15] 95 % of control | dose: 400.0 mg/kg/injection, schedule: Q01DX001 (ip), vehicle: carboxymethylcellulose (CMC) 95 % of control | [16] 87 % of control

COc1cc2c(cc1O)-c1cc3ccc(OC)c(OC)c3c[n+]1CC2
inactive: [12] 103 % of control

COc1c(Br)cc(C(=O)C(C)C)c(O)c1C
inactive: dose: 75.0 mg/kg/injection, schedule: Q04DX003 (ip), vehicle: Klucel (hydroxypropylcellulose) (HPC) 95 % of control | dose: 150.0 mg/kg/injection, schedule: Q04DX003 (ip), vehicle: Klucel (hydroxypropylcellulose) (HPC) 103 % of control | dose: 300.0 mg/kg/injection, schedule: Q04DX003 (ip), vehicle: Klucel (hydroxypropylcellulose) (HPC) 95 % of control

CC(C)C(CCN1CCCC1)(C(N)=O)c1cccc2ccccc12 (stereo not given)
inactive: [17] 112 % of control | dose: 100.0 mg/kg/injection, schedule: Q01DX009 (ip), vehicle: Klucel (hydroxypropylcellulose) (HPC) 105 % of control | [7] 98 % of control | dose: 200.0 mg/kg/injection, schedule: Q01DX009 (ip), vehicle: Klucel (hydroxypropylcellulose) (HPC) 112 % of control | [8] 95 % of control

CC(CO)(CO)Cc1ccccc1
inactive: dose: 100.0 mg/kg/injection, schedule: Q04DX002 (ip), vehicle: saline with Tween-80 97 % of control | dose: 200.0 mg/kg/injection, schedule: Q04DX002 (ip), vehicle: saline with Tween-80 108 % of control | dose: 400.0 mg/kg/injection, schedule: Q04DX002 (ip), vehicle: saline with Tween-80 120 % of control

NNC(=O)C1CCN1C(c1ccccc1)c1ccccc1 (stereo not given)
inactive: dose: 25.0 mg/kg/injection, schedule: Q01DX001 (ip), vehicle: saline with Tween-80 101 % of control | dose: 50.0 mg/kg/injection, schedule: Q01DX001 (ip), vehicle: saline with Tween-80 101 % of control | dose: 100.0 mg/kg/injection, schedule: Q01DX001 (ip), vehicle: saline with Tween-80 97 % of control

O=C(O)C(O)COc1ccc(Cl)cc1Cl (stereo not given)
inactive: [1] 92 % of control | [2] 93 % of control | [3] 107 % of control | [5] 102 % of control | [6] 102 % of control

CCN1CCc2cc3c(cc2C1)OCO3
inactive: dose: 10.0 mg/kg/injection, schedule: Q01DX001 (ip), vehicle: carboxymethylcellulose (CMC) 98 % of control | dose: 20.0 mg/kg/injection, schedule: Q01DX001 (ip), vehicle: carboxymethylcellulose (CMC) 93 % of control | dose: 40.0 mg/kg/injection, schedule: Q01DX001 (ip), vehicle: carboxymethylcellulose (CMC) 94 % of control | dose: 80.0 mg/kg/injection, schedule: Q01DX001 (ip), vehicle: carboxymethylcellulose (CMC) 96 % of control

CC(N)C(C)O (stereo not given)
inactive: [2] 96 % of control | [4] 101 % of control | [6] 101 % of control

CCSC(Sc1ccccc1)C(SCC)C(OC(=O)c1ccccc1)C(OC(=O)c1ccccc1)C(COC(=O)c1ccccc1)OC(=O)c1ccccc1 (stereo not given)
inactive: dose: 75.0 mg/kg/injection, schedule: Q01DX001 (ip), vehicle: other 95 % of control | dose: 150.0 mg/kg/injection, schedule: Q01DX001 (ip), vehicle: other 90 % of control | dose: 300.0 mg/kg/injection, schedule: Q01DX001 (ip), vehicle: other 94 % of control

O=C(Nc1ccccc1)N1CCC2N(C(=O)Nc3ccccc3)CCC3N(C(=O)Nc4ccccc4)CCC1N23 (stereo not given)
inactive: [7] 94 % of control | [8] 96 % of control | [9] 100 % of control

COc1nc2ccccc2nc1N1CC1
inactive: dose: 26.0 mg/kg/injection, schedule: Q01DX009 (ip), vehicle: acetone 103 % of control | dose: 40.0 mg/kg/injection, schedule: Q01DX009 (ip), vehicle: acetone 101 % of control | dose: 60.0 mg/kg/injection, schedule: Q01DX009 (ip), vehicle: acetone 108 % of control | dose: 90.0 mg/kg/injection, schedule: Q01DX009 (ip), vehicle: acetone 101 % of control | dose: 135.0 mg/kg/injection, schedule: Q01DX009 (ip), vehicle: acetone 121 % of control

NC1=C(Cl)C(=O)c2ccccc2C1=O
inactive: dose: 25.0 mg/kg/injection, schedule: Q04DX003 (ip), vehicle: saline with Tween-80 100 % of control | dose: 50.0 mg/kg/injection, schedule: Q04DX003 (ip), vehicle: saline with Tween-80 101 % of control | [10] 90 % of control

CCCCOC(=O)CSSCC(=O)OCCCC
inactive: [10] 106 % of control | [11] 109 % of control

COC1OC(CO)C(O)C(NC(=O)NCCCl)C1O (stereo not given)
inactive: dose: 100.0 mg/kg/injection, schedule: Q01DX001 (ip), vehicle: saline 113 % of control | dose: 200.0 mg/kg/injection, schedule: Q01DX001 (ip), vehicle: saline 111 % of control | dose: 400.0 mg/kg/injection, schedule: Q01DX001 (ip), vehicle: saline 103 % of control

Cc1ccc(S(=O)(=O)OCC2(COS(=O)(=O)c3ccc(C)cc3)CCC2(COS(=O)(=O)c2ccc(C)cc2)COS(=O)(=O)c2ccc(C)cc2)cc1
inactive: dose: 50.0 mg/kg/injection, schedule: Q01DX009 (ip), vehicle: saline 97 % of control | dose: 75.0 mg/kg/injection, schedule: Q01DX001 (ip), vehicle: saline 93 % of control | [1] 89 % of control | dose: 150.0 mg/kg/injection, schedule: Q01DX001 (ip), vehicle: saline 96 % of control | [3] 89 % of control | dose: 300.0 mg/kg/injection, schedule: Q01DX001 (ip), vehicle: saline 93 % of control

O=C(O)C(=O)Nc1ncn[nH]1
inactive: dose: 6.25 mg/kg/injection, schedule: Q01DX009 (ip), vehicle: Klucel (hydroxypropylcellulose) (HPC) 104 % of control | dose: 12.5 mg/kg/injection, schedule: Q01DX005 (ip), vehicle: Klucel (hydroxypropylcellulose) (HPC) 102 % of control | dose: 12.5 mg/kg/injection, schedule: Q01DX009 (ip), vehicle: Klucel (hydroxypropylcellulose) (HPC) 96 % of control and 104 % of control | dose: 25.0 mg/kg/injection, schedule: Q01DX009 (ip), vehicle: Klucel (hydroxypropylcellulose) (HPC) 100 % of control and 104 % of control | dose: 50.0 mg/kg/injection, schedule: Q01DX005 (ip), vehicle: Klucel (hydroxypropylcellulose) (HPC) 105 % of control and 106 % of control | [17] 107 % of control and 114 % of control | [12] 96 % of control | [13] 98 % of control
